Assay results taken from PubChem BioAssay (NCI).
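Five compound concentrations were applied to cells in 96-well plates for 48 hours; endpoints were derived by simple linear interpolation of the resulting dose-response curve. TGI: concentration producing complete growth inhibition.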

How the values were obtained:
Experiment in all cases: NCI-60 cell line screen, 48 h
[1] = test system: SK-OV-3 ovarian
[2] = test system: UO-31 renal
[3] = test system: SK-MEL-2 melanoma
[4] = test system: T-47D breast
[5] = test system: MDA-MB-231 breast
[6] = test system: SNB-75 CNS
[7] = test system: OVCAR-3 ovarian
[8] = test system: DU-145 prostate
[9] = test system: OVCAR-8 ovarian
[10] = test system: EKVX NSCLC
[11] = test system: SW-620 colon
[12] = test system: MOLT-4 leukemia
[13] = test system: TK-10 renal
[14] = test system: KM12 colon
[15] = test system: HS 578T breast
[16] = test system: OVCAR-5 ovarian
[17] = test system: SF-295 CNS
[18] = test system: A498 renal
[19] = test system: NCI-H23 lung
[20] = test system: ACHN renal
[21] = test system: U251 CNS
[22] = test system: 786-0 renal
[23] = test system: SK-MEL-5 melanoma
[24] = test system: CAKI-1 renal
[25] = test system: A549 NSCLC
[26] = test system: CCRF-CEM leukemia
[27] = test system: MCF7 breast
[28] = test system: HCC-2998 colon
[29] = test system: MDA-MB-435
[30] = test system: HOP-62 NSCLC
[31] = test system: SF-268 CNS
[32] = test system: NCI-H522 lung
[33] = test system: SNB-19 CNS
[34] = test system: HCT-15 colon
[35] = test system: M14 melanoma
[36] = test system: UACC-257 melanoma
[37] = test system: MALME-3M melanoma
[38] = test system: OVCAR-4 ovarian
[39] = test system: NCI-H226 lung
[40] = test system: SN12C renal
[41] = test system: SR leukemia
[42] = test system: PC-3 prostate
[43] = test system: BT-549 breast
[44] = test system: RPMI-8226 leukemia
[45] = test system: RXF 393 renal
[46] = test system: HCT-116 colon
[47] = test system: HT29 colon
[48] = test system: NCI/ADR-RES ovarian
[49] = test system: IGROV1 ovarian
[50] = test system: K-562 leukemia
[51] = test system: SK-MEL-28 melanoma
[52] = test system: UACC-62 melanoma
[53] = test system: NCI-H460 lung
[54] = test system: MDA-N
[55] = test system: COLO 205 colon
[56] = test system: SF-539 CNS
[57] = test system: LOX IMVI melanoma

S=C(Nc1c2c(nc3ccccc13)CCCC2)Nc1c2c(nc3ccccc13)CCCC2
TGI [1]: > 100 µM | TGI [2]: > 100 µM | TGI [3]: > 100 µM | TGI [4]: > 100 µM | TGI [5]: > 100 µM | TGI [6]: > 100 µM | TGI [7]: > 100 µM | TGI [8]: > 100 µM | TGI [9]: > 100 µM | TGI [10]: > 100 µM | TGI [11]: > 100 µM | TGI [12]: > 100 µM | TGI [13]: > 100 µM | TGI [14]: > 100 µM | TGI [15]: > 100 µM | TGI [16]: > 100 µM | TGI [17]: > 100 µM | TGI [18]: > 100 µM | TGI [19]: > 100 µM | TGI [20]: > 100 µM | TGI [21]: > 100 µM | TGI [22]: > 100 µM | TGI [23]: > 100 µM | TGI [24]: > 100 µM | TGI [25]: > 100 µM | TGI [26]: > 100 µM | TGI [27]: > 100 µM | TGI [28]: > 100 µM | TGI [29]: > 100 µM | TGI [30]: > 100 µM | TGI [31]: > 100 µM | TGI [32]: > 100 µM | TGI [33]: > 100 µM | TGI [34]: > 100 µM | TGI [35]: > 100 µM | TGI [36]: > 100 µM | TGI [37]: > 100 µM | TGI [38]: > 100 µM | TGI [39]: > 100 µM | TGI [40]: > 100 µM | TGI [41]: > 100 µM | TGI [42]: > 100 µM | TGI [43]: > 100 µM | TGI [44]: > 100 µM | TGI [45]: > 100 µM | TGI [46]: > 100 µM | TGI [47]: > 100 µM | TGI [48]: > 100 µM | TGI [49]: > 100 µM | TGI [50]: > 100 µM | TGI [51]: > 100 µM | TGI [52]: > 100 µM | TGI [53]: > 100 µM | TGI [54]: > 100 µM | TGI [55]: > 100 µM

O=C1c2ccccc2-c2c1c1ccccc1c(=O)n2-c1cccnc1
TGI [1]: > 100 µM | TGI [2]: > 100 µM | TGI [3]: > 100 µM | TGI [4]: > 100 µM | TGI [5]: > 100 µM | TGI [56]: > 71.1 µM | TGI [6]: > 100 µM | TGI [7]: > 100 µM | TGI [8]: > 100 µM | TGI [9]: > 100 µM | TGI [10]: > 100 µM | TGI [11]: > 100 µM | TGI [12]: > 28.4 µM | TGI [13]: > 100 µM | TGI [14]: > 100 µM | TGI [15]: > 100 µM | TGI [16]: > 100 µM | TGI [17]: > 100 µM | TGI [19]: > 100 µM | TGI [20]: > 100 µM | TGI [21]: > 100 µM | TGI [22]: 44.7 µM | TGI [23]: > 100 µM | TGI [24]: > 100 µM | TGI [25]: > 100 µM | TGI [57]: > 100 µM | TGI [27]: > 100 µM | TGI [28]: > 100 µM | TGI [29]: > 100 µM | TGI [30]: 41.8 µM | TGI [31]: > 100 µM | TGI [32]: 39.3 µM | TGI [33]: > 100 µM | TGI [34]: > 100 µM | TGI [35]: > 100 µM | TGI [36]: > 100 µM | TGI [37]: > 100 µM | TGI [38]: > 100 µM | TGI [39]: > 100 µM | TGI [40]: > 100 µM | TGI [41]: > 100 µM | TGI [42]: > 100 µM | TGI [43]: > 100 µM | TGI [44]: > 100 µM | TGI [45]: > 100 µM | TGI [46]: > 100 µM | TGI [47]: > 100 µM | TGI [48]: > 100 µM | TGI [49]: > 100 µM | TGI [50]: > 100 µM | TGI [51]: > 100 µM | TGI [52]: > 85.8 µM | TGI [53]: > 100 µM | TGI [54]: > 100 µM | TGI [55]: > 100 µM
